Laboratory results taken from the supplement of paper PMC13380429.

Tests used:
Vero E6 [1] = assay: drug sensitivity score (DSS) for viability; higher = more toxic; extreme values may be limits of the assay; conditions: 72 h
Caco-2 [2] = assay: as above; conditions: 72 h
Calu-3 [3] = assay: as above; conditions: 72 h
HepG2 [4] = assay: as above; conditions: 72 h
U2OS [5] = assay: as above; conditions: 72 h
A549-ACE2 = assay: drug-induced phospholipidosis relative to tamoxifen; higher = more phospholipidosis
Caco-2 [6] = assay: relative viability EC50 (midpoint between 100% and the lowest measured viability); higher = less toxic; conditions: 72 h
Calu-3 [7] = assay: as above; conditions: 72 h
[8] = tested on: A549-ACE2 infected with SARS-CoV-2; assay: SARS-CoV-2 infection rate relative to DMSO; higher = more infection; conditions: 24 h
[9] = tested on: A549-ACE2 infected with SARS-CoV-2; assay: cell count relative to DMSO; higher = less toxic; conditions: 24 h
[10] = tested on: A549-ACE2 infected with SARS-CoV-2; assay: morphology score (similarity to uninfected cells); higher = more like uninfected cells; conditions: 24 h
Vero E6 [11] = assay: cell viability relative to DMSO; higher = less toxic; conditions: 72 h
Caco-2 [12] = assay: as above; conditions: 72 h
Calu-3 [13] = assay: as above; conditions: 72 h
HepG2 [14] = assay: as above; conditions: 72 h
U2OS [15] = assay: as above; conditions: 72 h
HepG2 [16] = assay: relative viability EC50 (midpoint between 100% and the lowest measured viability); higher = less toxic; conditions: 72 h
Vero E6 [17] = assay: as above; conditions: 72 h
U2OS [18] = assay: as above; conditions: 72 h

CCn1c(-c2nonc2N)nc2cncc(C(=O)N3CC[C@H](N)C3)c21
Conditions | drug sensitivity score | relative viability EC50 [nM]
Caco-2 [2] | 0.5 | –
Caco-2 [6] | – | > 10000
Calu-3 [3] | 0 | –
Calu-3 [7] | – | > 10000
HepG2 [4] | 2.2 | –
U2OS [5] | 3.7 | –
Vero E6 [1] | 4.4 | –

drug-induced phospholipidosis [%], A549-ACE2
Conditions | 0.3 µM | 0.833333 µM | 3.33333 µM | 6.66667 µM | 10 µM | 30 µM
24 h | 0.14 | 1.05 | -2.9 | -4.65 | -1.66 | 4.03
48 h | 0.57 | 0.37 | -3.24 | -3.77 | -1.92 | 7.82
72 h | 0.439 | -0.392 | -3.22 | -2.1 | – | –

Conditions | SARS-CoV-2 infection rate, [8] [%] | cell count, [9] [%] | cell viability, Caco-2 [12] [%] | cell viability, Calu-3 [13] [%] | cell viability, HepG2 [14] [%] | cell viability, U2OS [15] [%] | cell viability, Vero E6 [11] [%] | morphology score, [10]
1 nM | – | – | 98.7 | 104 | 99.3 | 103 | 107 | –
10 nM | – | – | 99.1 | 94 | 108 | 99.1 | 106 | –
0.1 µM | 103 | 104 | – | – | – | – | – | 0.19
100 nM | – | – | 98.1 | 107 | 95.9 | 101 | 95.3 | –
0.3 µM | 105 | 110 | – | – | – | – | – | 0.18
1 µM | 109 | 91 | – | – | – | – | – | -0.07
1000 nM | – | – | 93.5 | 127 | 88.2 | 88.2 | 84.6 | –
3 µM | 105 | 73 | – | – | – | – | – | -0.12
10000 nM | – | – | 84.2 | 124 | 71.8 | 60.5 | 52.2 | –

COc1ccc(-c2cc3nccn3c(Nc3ncccc3C(N)=O)n2)cc1OC [BAY-61-3606]
Conditions | drug sensitivity score | relative viability EC50 [nM]
Caco-2 [2] | 5.2 | –
Caco-2 [6] | – | 1360
Calu-3 [3] | 0 | –
Calu-3 [7] | – | > 10000
HepG2 [4] | 7.4 | –
HepG2 [16] | – | 2100
U2OS [5] | 3.4 | –
Vero E6 [1] | 1.3 | –

drug-induced phospholipidosis [%], A549-ACE2
Conditions | 0.3 µM | 0.833333 µM | 3.33333 µM
24 h | -2.52 | -2.28 | 22.8
48 h | 0.47 | -0.01 | –
72 h | 0.971 | -0.217 | –

Conditions | SARS-CoV-2 infection rate, [8] [%] | cell count, [9] [%] | cell viability, Caco-2 [12] [%] | cell viability, Calu-3 [13] [%] | cell viability, HepG2 [14] [%] | cell viability, U2OS [15] [%] | cell viability, Vero E6 [11] [%] | morphology score, [10]
1 nM | – | – | 104 | 108 | 96.1 | 103 | 97.4 | –
10 nM | – | – | 89.8 | 99.1 | 99.7 | 97.4 | 99 | –
0.1 µM | 94 | 99 | – | – | – | – | – | 0.21
100 nM | – | – | 95.8 | 96 | 102 | 101 | 93.9 | –
0.3 µM | 101 | 99 | – | – | – | – | – | 0.16
1 µM | 107 | 95 | – | – | – | – | – | 0.02
1000 nM | – | – | 80.8 | 130 | 87.5 | 94.1 | 99.6 | –
3 µM | 82 | 59 | – | – | – | – | – | 0.48
10000 nM | – | – | 46.1 | 109 | 5 | 53.3 | 70.9 | –

CC(=O)OC[C@H]1O[C@@H]([S-])[C@H](OC(C)=O)[C@@H](OC(C)=O)[C@@H]1OC(C)=O.CCP(CC)CC.[Au+] [auranofin]
Conditions | drug sensitivity score | relative viability EC50 [nM]
Caco-2 [2] | 11 | –
Caco-2 [6] | – | 1150
Calu-3 [3] | 4.5 | –
Calu-3 [7] | – | 3860
HepG2 [4] | 9.7 | –
HepG2 [16] | – | 1460
U2OS [5] | 16.9 | –
U2OS [18] | – | 382
Vero E6 [1] | 7.5 | –
Vero E6 [17] | – | 2190

drug-induced phospholipidosis [%], A549-ACE2
Conditions | 0.3 µM | 0.833333 µM | 3.33333 µM | 6.66667 µM
24 h | 0.97 | -3.21 | 5.44 | 2.76
48 h | 3.04 | -1.45 | 6.04 | –
72 h | 2.56 | 0.634 | – | –

Conditions | SARS-CoV-2 infection rate, [8] [%] | cell count, [9] [%] | cell viability, Caco-2 [12] [%] | cell viability, Calu-3 [13] [%] | cell viability, HepG2 [14] [%] | cell viability, U2OS [15] [%] | cell viability, Vero E6 [11] [%] | morphology score, [10]
1 nM | – | – | 99.9 | 100 | 90.6 | 101 | 92.1 | –
10 nM | – | – | 94.2 | 92.8 | 99.4 | 98.2 | 94.2 | –
0.1 µM | 96 | 98 | – | – | – | – | – | 0.03
100 nM | – | – | 101 | 106 | 102 | 98.5 | 93.6 | –
0.3 µM | 91 | 103 | – | – | – | – | – | 0.11
1 µM | 86 | 98 | – | – | – | – | – | 0.34
1000 nM | – | – | 58.6 | 117 | 72.1 | 7.5 | 88.1 | –
3 µM | 64 | 90 | – | – | – | – | – | 0.39
10000 nM | – | – | 0 | 1.2 | -0.1 | 0 | 0 | –

CCN(CC)C(=S)S [ditiocarb-sodium-trihydrate]
Conditions | drug sensitivity score | relative viability EC50 [nM]
Caco-2 [2] | 6.4 | –
Caco-2 [6] | – | 2110
Calu-3 [3] | 2.8 | –
HepG2 [4] | 3 | –
HepG2 [16] | – | 3730
U2OS [5] | 0.2 | –
U2OS [18] | – | > 10000
Vero E6 [1] | 0 | –
Vero E6 [17] | – | > 10000

drug-induced phospholipidosis [%], A549-ACE2
Conditions | 0.3 µM | 0.833333 µM | 3.33333 µM | 6.66667 µM | 10 µM
24 h | 0.51 | 1.07 | -2.14 | -0.7 | -0.24
48 h | 2.4 | 1.02 | 0.85 | 0.97 | 0.53
72 h | 3.87 | -0.805 | 0.971 | 1.39 | 0.827

Conditions | SARS-CoV-2 infection rate, [8] [%] | cell count, [9] [%] | cell viability, Caco-2 [12] [%] | cell viability, Calu-3 [13] [%] | cell viability, HepG2 [14] [%] | cell viability, U2OS [15] [%] | cell viability, Vero E6 [11] [%] | morphology score, [10]
1 nM | – | – | 94.1 | 105 | 97.5 | 101 | 92.8 | –
10 nM | – | – | 97 | 93.1 | 97.9 | 98.9 | 102 | –
100 nM | – | – | 89.3 | 108 | 100 | 101 | 96.3 | –
0.3 µM | 108 | 97 | – | – | – | – | – | -0.22
1000 nM | – | – | 89.2 | 89 | 108 | 101 | 103 | –
3 µM | 98 | 102 | – | – | – | – | – | 0.08
10 µM | 95 | 107 | – | – | – | – | – | 0.19
10000 nM | – | – | 16.7 | 70.2 | 35.6 | 85.5 | 99 | –
30 µM | 62 | 106 | – | – | – | – | – | 0.61
